Data from US4545932A, “Glucosaminyl muramyl peptide derivatives” (Dainippon Pharmaceutical Co., Ltd., priority 1982, dated 1985).

Key:
Type in all cases: in vivo
[1] = tested on: Staphylococcus aureus No. 50774; assay: Prophylactic effect on experimental infection, Staphylococcus aureus; settings: Std-ddY male mice, 14 days after infection
Excerpt: (§1) Std-ddY male mice weighing about 23 g (each group: 8 mice) were used. Test compounds dissolved in a physiological saline solution were each intravenously administered to mice once a day 1, 2 and 3 days before the infection. Twenty-four hours after the final administration of test compounds, the mice were infected with various microorganisms suspended in saline (in case of Staphylococcus aureus and Candida albicans) or in Trypto-Soy Broth (manufactured by Eiken Chemical Co., Ltd., Japan) (in case of Pseudomonas aeruginosa and Escherichia coli) under the conditions as shown in Table 1. When the experiment was repeated twice or more, the data were pooled.
(§2) ^a Test compounds were intravenously administered once a day 1, 2 and
(§3) 3 days before infection.
(§4) ^b Figures represent (number of survivals)/(number of animals tested)
(§5) and figures in parenthesis represent percent survival.

[2] = tested on: Pseudomonas aeruginosa No. 12; assay: Prophylactic effect on experimental infection, Pseudomonas aeruginosa; settings: Std-ddY male mice, 7 days after infection
Excerpt: as §1, §2, §3, §4, §5

Escherichia coli P-5101 = assay: Prophylactic effect on experimental infection, Escherichia coli; settings: Std-ddY male mice, 7 days after infection
Excerpt: as §1, §2, §3, §4, §5

Candida albicans 3170 = assay: Prophylactic effect on experimental infection, Candida albicans; settings: Std-ddY male mice, 7 days after infection
Excerpt: as §1
3170 fungal sus- infection
as §2, §3, §4, §5

Pyrogenicity in rabbits = settings: for Pyrogenicity in rabbits: injected into ear vein, three rabbits per group
Protocol: Rabbits (each group: three rabbits) were used. Test compounds dissolved in a physiological saline solution were each injected into ear vein of rabbits. The difference between maximum body temperature within three hours after the injection of test compound and the body temperature before the injection was regarded as rise in body temperature. The degree of pyrogenicity was evaluated according to the following criterion: […]

Acute toxicity in mice = settings: mortality for 14 days
Protocol: Male and female ICR mice aged about 6 weeks (each group: 8 mice) were used. The compound of Example 15 was dissolved in distilled water and administered to mice. Mortality was checked for 14 days and LD50 was calculated by probit method.

various microorganisms = assay: Antiinfectious effect in mice; settings: summary of Table 2; mice
Excerpt: as §1
Besides, as to the compounds of Examples 8, 18, 36, 37 and 45 (derivatives of GMP3 -A), similar experiments were done.

[3] = Dose 0.05 mg/kg i.v. once a day 1, 2 and 3 days before infection
[4] = Dose 0.125 mg/kg i.v. once a day 1, 2 and 3 days before infection
[5] = Dose 0.2 mg/kg i.v. once a day 1, 2 and 3 days before infection
[6] = Dose 0.8 mg/kg i.v. once a day 1, 2 and 3 days before infection
[7] = Dose 3.1 mg/kg i.v. once a day 1, 2 and 3 days before infection
[8] = Dose 12.5 mg/kg i.v. once a day 1, 2 and 3 days before infection
[9] = Dose 0.0125 mg/kg i.v. once a day 1, 2 and 3 days before infection
[10] = Dose 50 mg/kg i.v. once a day 1, 2 and 3 days before infection

In the case of `CCCCCCCCCCCCCCCCCC(=O)NC(CCCC(NC(=O)CCC(NC(=O)C(C)NC(=O)C(C)OC1C(NC(C)=O)C(O)OC(CO)C1OC1OC(CO)C(O)C(O)C1NC(C)=O)C(N)=O)C(=O)NC(C)C(=O)[O-])C(N)=O.[Na+]` [Example 15, sodium β-N-acetylglucosaminyl(1→4)-N-acetylmuramyl-L-alanyl-D-isoglutaminyl-(L)-stearoyl-(D)-meso-2,6-diaminopimelic acid-(D)-amide(L)-D-alanate], the “(number of survivals)/(number of animals tested)” value [1, 3] is reported as 9/16, the percent survival [1, 3] is reported as 56.3% and the “(number of survivals)/(number of animals tested)” value [1, 4] is reported as 3/16. The percent survival [1, 4] was 18.8%, the “(number of survivals)/(number of animals tested)” value [1, 5] was 13/16 and the percent survival [1, 5] was 81.3%. For the same molecule, the “(number of survivals)/(number of animals tested)” value [1, 6] was 13/16, the percent survival [1, 6] was 81.3% and the “(number of survivals)/(number of animals tested)” value [1, 7] was 15/16. For the same molecule, the percent survival [1, 7] was 93.8%, the “(number of survivals)/(number of animals tested)” value [1, 8] was 13/16 and the percent survival [1, 8] was 81.3%. The “(number of survivals)/(number of animals tested)” value [2, 9] was 12/32, the percent survival [2, 9] was 37.5% and the “(number of survivals)/(number of animals tested)” value [2, 3] was 14/32. For the same molecule, the percent survival [2, 3] was 43.8%, the “(number of survivals)/(number of animals tested)” value [2, 5] was 15/32 and the percent survival [2, 5] was 46.9%. For the same molecule, the “(number of survivals)/(number of animals tested)” value [2, 6] was 14/24, the percent survival [2, 6] was 58.3% and the “(number of survivals)/(number of animals tested)” value [2, 7] was 14/16. For the same molecule, the percent survival [2, 7] was 87.5%, the “(number of survivals)/(number of animals tested)” value [2, 8] was 8/8 and the percent survival [2, 8] was 100%. For the same molecule, the “(number of survivals)/(number of animals tested)” value (Escherichia coli P-5101; [3]) was 6/16, the percent survival (Escherichia coli P-5101; [3]) was 37.5% and the “(number of survivals)/(number of animals tested)” value (Escherichia coli P-5101; [5]) was 7/16. For the same molecule, the percent survival (Escherichia coli P-5101; [5]) was 43.8%, the “(number of survivals)/(number of animals tested)” value (Escherichia coli P-5101; [6]) was 10/16 and the percent survival (Escherichia coli P-5101; [6]) was 62.5%. For the same molecule, the “(number of survivals)/(number of animals tested)” value (Escherichia coli P-5101; [7]) was 11/16, the percent survival (Escherichia coli P-5101; [7]) was 68.8% and the “(number of survivals)/(number of animals tested)” value (Escherichia coli P-5101; [8]) was 11/16. The percent survival (Escherichia coli P-5101; [8]) was 68.8%, the “(number of survivals)/(number of animals tested)” value (Escherichia coli P-5101; [10]) was 7/8 and the percent survival (Escherichia coli P-5101; [10]) was 87.5%. For the same molecule, the “(number of survivals)/(number of animals tested)” value (Candida albicans 3170; [6]) was 3/8, the percent survival (Candida albicans 3170; [6]) was 37.5% and the “(number of survivals)/(number of animals tested)” value (Candida albicans 3170; [7]) was 4/8. For the same molecule, the percent survival (Candida albicans 3170; [7]) was 50%, the “(number of survivals)/(number of animals tested)” value (Candida albicans 3170; [8]) was 4/8 and the percent survival (Candida albicans 3170; [8]) was 50%. For the same molecule, the “(number of survivals)/(number of animals tested)” value (Candida albicans 3170; [10]) was 7/8, the percent survival (Candida albicans 3170; [10]) was 87.5% and the Pyrogenicity in rabbits (Pyrogenicity in rabbits; Dose 0.1 mg/rabbit) was “- (one animal showed rise in body temperature of 0.6 °C or more)”. The Pyrogenicity in rabbits (Pyrogenicity in rabbits; Dose 0.3 mg/rabbit) was “- (one animal showed rise in body temperature of 0.6 °C or more)”, the Pyrogenicity in rabbits (Pyrogenicity in rabbits; Dose 1 mg/rabbit) was “- (one animal showed rise in body temperature of 0.6 °C or more)” and the Pyrogenicity in rabbits (Pyrogenicity in rabbits; Dose 3 mg/rabbit) was “± (one animal showed rise in body temperature of 0.6 °C or more)”. For the same molecule, the Pyrogenicity in rabbits (Pyrogenicity in rabbits; Dose 10 mg/rabbit) was “+ (two or more animals showed rise in body temperature of 0.6 °C or more)”, the “pyrogenicity compared with GMP4 -A” value (Pyrogenicity in rabbits; summary of Table 3, rabbits) was “less pyrogenicity than GMP4 -A” and the LD50 (Acute toxicity in mice; i.p., female ICR mice) was > 600 mg/kg. The LD50 (Acute toxicity in mice; i.p., male ICR mice) was > 600 mg/kg, the LD50 (Acute toxicity in mice; i.v., female ICR mice, probit method, 95% confidence limits in parenthesis) was 266 (237-297) mg/kg and the LD50 (Acute toxicity in mice; i.v., male ICR mice, probit method, 95% confidence limits in parenthesis) was 292 (261-328*) mg/kg. The LD50 (Acute toxicity in mice; p.o., female ICR mice) was > 3000 mg/kg, the LD50 (Acute toxicity in mice; p.o., male ICR mice) was > 3000 mg/kg and the LD50 (Acute toxicity in mice; s.c., female ICR mice) was > 600 mg/kg. For the same molecule, the LD50 (Acute toxicity in mice; s.c., male ICR mice) was > 600 mg/kg and the “antiinfectious effect compared with GMP4 -A” value (various microorganisms) was “more potent antiinfectious effect”.
